Data: patent publication US9051240B2, “Substituted 2-[2-(phenyl) ethylamino] alkaneamide derivatives and their use as sodium and/or calcium channel modulators” (Newron Pharmaceuticals S.P.A., priority 2007, dated 2015)
pIC50, pKi: −log10 of the molar value. Read-outs that look alike come from different tables or passages of the source.

What was measured:
[1] = target: MAO-B (Rattus norvegicus (Rat), UniProt P19643); experiment: In vitro MAO-B enzyme activity assay (radioenzymatic, rat brain mitochondria); type: biochemical; settings: 14C-PEA 0.5 μM
MAO-B, sequence (P19643 whole entry): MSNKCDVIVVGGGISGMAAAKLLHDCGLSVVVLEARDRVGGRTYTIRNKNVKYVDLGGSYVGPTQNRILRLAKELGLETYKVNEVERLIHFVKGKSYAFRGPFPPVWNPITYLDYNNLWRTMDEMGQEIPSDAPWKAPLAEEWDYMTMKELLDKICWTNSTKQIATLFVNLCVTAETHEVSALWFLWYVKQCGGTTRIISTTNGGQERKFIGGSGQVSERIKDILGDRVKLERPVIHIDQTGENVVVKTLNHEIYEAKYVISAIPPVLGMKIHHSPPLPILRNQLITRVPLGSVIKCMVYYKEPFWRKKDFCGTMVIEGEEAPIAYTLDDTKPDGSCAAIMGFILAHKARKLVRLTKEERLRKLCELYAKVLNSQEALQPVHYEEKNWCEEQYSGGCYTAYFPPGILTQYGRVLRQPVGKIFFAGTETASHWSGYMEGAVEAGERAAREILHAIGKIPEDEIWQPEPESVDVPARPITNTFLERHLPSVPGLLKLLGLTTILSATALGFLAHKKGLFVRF
Procedure: Male Wistar rats (Harlan, Italy weighing 175-200 g) were sacrificed under light anaesthesia and brains were rapidly removed and homogenized in 8 volumes of ice-cold 0.32 M sucrose buffer containing 0.1 M EDTA, pH 7.4. The crude homogenate was centrifuged at 2220 rpm for 10 minutes and the supernatant recovered. The pellet was homogenized and centrifuged again. The two supernatants were pooled and centrifuged at 9250 rpm for 10 minutes at +4° C. The pellet was resuspended in fresh buffer and centrifuged at 11250 rpm for 10 minutes at +4° C. The resulting pellet was stored at −80° C. The enzyme activity was assessed with a radioenzymatic assay using the substrate ^14C-phenylethylamine (PEA) specific for MAO-B. The mitochondrial pellet (500 μg protein) was resuspended in 0.1 M phosphate buffer (pH 7.4). 200 μl of the suspension were added to a 50 μl solution of the test compound or buffer, and incubated for 30 min at 37° C. (preincubation) then the substrate (50 μl) was added. The incubation was carried out for 10 minutes at 37° C. (^14C-PEA, 0.5 μM). The reaction was stopped by adding 0.2 ml of perchloric acid. After centrifugation, the deaminated metabolites were extracted with 3 ml of toluene and the radioactive organic phase containing the neutral and/or acidic metabolites formed as a result of MAO-B activity was measured by liquid scintillation spectrometry at 90% efficiency. The MAO-B activity was expressed as nmoles of substrate transformed/mg protein/min.

[2] = tested on: mice; experiment: Amphetamine and chlordiazepoxide-induced hyperlocomotion in mice; type: in vivo; settings: 20.0 mg/Kg po
Procedure: In this model, mice are treated with a mixture of d-amphetamine plus an anxiolytic dose of the benzodiazepine, chlordiazepoxide (Rushton R, Steinberg H. Combined effects of chlordiazepoxide and d-amphetamine on activity of rats in an unfamiliar environment. Nature 1966; 211:1312-3; R. Arban, G. Maraia, K. Brackenborough, L. Winyard, A. Wilson, P. Gerrard, C. Large. Evaluation of the effects of lamotrigine, valproate and carbamazepine in a rodent model of mania Behavioural Brain Research, 158: 123-132). The model has been claimed to mimic some aspects of mania in bipolar disorder. Importantly, the hyperactivity induced by the mixture of d-amphetamine and chlordiazepoxide could be prevented by prior administration of the established mood stabilizer, lithium, as well as other mood stabilizers drugs (e.g. magnesium valproate and carbamazepine). […]
Amphetamine (AMP) (2.5 mg/kg) plus chlordiazepoxide hydrochloride (CDZ) (3 mg/kg/ip) were administered to male Albino Swiss mice (25-32 g) in a volume of 10 ml/kg. The locomotor activity was recorded using Opto-M3 System (Columbus Instruments) which is multi-channel activity monitor. […] The locomotor activity (ambulation and total activity count) was evaluated for 30 min. […]
Statistical analysis: the data were evaluated by an analysis of variance (ANOVA), followed, when appropriate, by individual comparison with the control using Dunnett's test.

[3] = tested on: SNL rats; experiment: Spinal nerve ligation model of neuropathic pain (thermal hyperalgesia); type: in vivo; settings: Rattus norvegicus, po, orally administered
[4] = tested on: Na+ currents in ND7/23 cells (TTX-s); experiment: Patch clamp evaluation of Na+ currents blockade in ND7/23 cell line; type: cell-based, rat
Procedure: ND7/23 (ECACC No 92090903 from SIGMA), is a hybrid cell line derived from a neonatal rat DRG fused with the mouse neuroblastoma N18Tg2 (Wood et al., Proc. Biol. Sci., 1990 September, 241(1302), 187-194).
The molecular identity of the channels responsible for the TTX-s conductance is unknown but it is presumed that TTX-s conductance arises from the activity of a mixed population of sodium channels.
Cells are routinously maintained in DMEM with 10% of FBS, 4 mM glutamine, 1 mM sodium piruvate. The day before the patch clamp experiment cells are detached and seeded at 100,000 cells/polylysine-coated 35 mm Petri dish.
Experiments on ND7/23 cells were carried out using standard whole cell patch clamp methods (Hamill et al., Pfugers Arch., 1981 August, 391(12), 85-100), as described in previous section.
To test the effect of compounds on sodium currents in ND7/23 cells, holding membrane potential was set at −90 mV, then a two step protocol was used to determine the voltage dependence of the block. Sodium currents were activated by a 30 ms step pulse to 0 mV (test pulse) from a 2000 ms preconditioning potential of −110 mV (resting condition) and a potential of ˜−70 mV (half maximal steady-state condition).
Tonic block of resting and depolarized currents at a given drug concentration was calculated as the difference between the peak Na^+ current in the control external bath solution and peak currents with the test substance divided by control peak.
Drug concentration-inhibition curves were obtained by plotting tonic blocks in the resting and depolarized condition, versus drug concentrations. Dose-response curves were fitted to the tonic block data, according to the logistic equation: y=A2+(A1−A2)/[1+(x/IC50)p]. A1 and A2 are fixed values of 0 and 1 corresponding to 0 and 100% current inhibition, x is the drug concentration, IC50 is the drug concentration resulting in 50% current inhibition and p is the corresponding slope factor.
The apparent affinity of drug for the inactivated state (Ki) was calculated according to the equation 1/Kdep=h/Kr+(1−h)/Ki where Kr is the affinity of drug for the resting/closed state; Kdep is the IC50 in the depolarized condition, h and (1−h) are the fractions of channels present at the rest. and dep. potentials, respectively.
Control bath solution contained (mM): NaCl 80, Choline HCl 40, CaCl2 1.3, MgCl2 2, KCl 2, CdCl2 0.4, NiCl2 0.3, TEACl 20, Hepes 10, Glucose 10.
Internal pipette solution consisted of (mM): CsF 65, CsCl 65, NaCl 10, CaCl2 1.3, MgCl2 2, Hepes 10, EGTA 10, MgATP 1.
Compounds were dissolved as stock solutions (20 mM) in DMSO. They were diluted to the final concentrations in the external solution.

| Structure (SMILES) | pIC50 [1] | hyperactivity (ambulation over 30 min) induced by amphetamine alone ([2]; amphetamine 2.5 mg/kg i.p.) | hyperactivity (ambulation over 30 min) induced by the mixture of amphetamine and chlordiazepoxide ([2]; amphetamine 2.5 mg/kg i.p. + chlordiazepoxide 3.0 mg/Kg ip) | ED50 [3] | pKi ([4]; calculated from Kr and Kdep, read-out: Ki (apparent affinity for the inactivated state)) | pIC50 ([4]; read-out: IC50 depolarized, preconditioning potential ~-70 mV) | pIC50 ([4]; read-out: IC50 resting (Kr), preconditioning potential -110 mV) |
| --- | --- | --- | --- | --- | --- | --- | --- |
| CCCCOc1cccc(CCNCC(=O)N(C)C)c1.Cl [2-[2-(3-Butoxyphenyl)-ethylamino]-N,N-dimethylacetamide hydrochloride] | 3.64 | reduced hyperactivity | reduced hyperactivity | 10.6 mg/kg |  |  |  |
| C[C@H](NCc1ccc(OCc2ccccc2F)cc1)C(N)=O [ralfinamide, (S)-(+)-2-[4-(2-fluorobenzyloxy)-benzylamino]-propanamide, reference compound] | 6.70 |  |  |  | 5.08 | 4.82 | 3.83 |
